Data on 1 compound can be found in PMC10653753 (Emerging Microbes & Infections, 2023).

Each structure is given as a SMILES string. Read-outs that look alike come from different tables or passages of the source.

The test system of data set [1] is CHIKV. The following applies: read-out: 50% inhibitory concentration against CHIKV; Huh-7 cells; cited from earlier work.
In data set [2] the test system is CHIKV. The following applies: Vero cells, cited from earlier work.
Data set [3] concerns CHIKV. The data set can be described thus: Cell-based antiviral efficacy in CHIKV-infected Vero cells, plaque titration. The conditions noted are these: Chikungunya virus, 72 h, read-out: EC50, CHIKV replication.
The conditions of data set [4]: monkeys, 500 mg/kg; cited from earlier work.

Regarding `O=c1cc(-c2ccccc2)oc2cc(O)c(O)c(O)c12` [baicalein], the results for the IC50 in the data set on CHIKV [1] and with CHIKV [2] (read-out: 50% inhibitory concentration against CHIKV) were 16.9 µM and 7 µM, respectively. Moreover, the “50% inhibitory concentration against CHIKV” value in the data set with CHIKV [2] is 1.891 µg/mL. Further, the EC50 in the data set with CHIKV [3] stood at 520 ± 60 nM. In data set [4], the “Toxicity throughout the pharmacokinetic study” value is on record as “no apparent toxicity”.

The EC50 is the concentration needed to bring the measured effect to its halfway point.
